# System: 616215-338-R-J1-PDC spheroids with HUVEC/MSC, viability
# Assay: Anticancer human tumor 616215-338-R-J1-PDC patient-derived colon adenocarcinoma cell line growth inhibition [PI3K]
# Details: for IC50: curve of first compound; for viability, T/C: stronger effect = lower value
# Procedure, shortened: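 Targeted small molecules plus PI3K inhibitors, half-log dose series from Cmax (default top 10 microM), were applied to heterotypic spheroids of cancer cells with HUVEC and MSCs. Viability indicated growth inhibition.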
# 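Note: spheroids exposed to agents for seven days before the viability read.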
compound,measurement,setting,value
CNC(=O)c1ccc(N2C(=S)N(c3ccc(C#N)c(C(F)(F)F)c3)C(=O)C2(C)C)cc1F + CC(Nc1ncnc2nc[nH]c12)c1cc2cccc(Cl)c2c(=O)n1-c1ccccc1,IC50,second compound 0.0316 µM,> 10000 nM
same,IC50,second compound 0.1 µM,> 10000 nM
same,IC50,second compound 0.316 µM,> 10000 nM
same,IC50,second compound 1 µM,> 10000 nM
same,IC50,second compound 3.16 µM,> 10000 nM
same,IC50,second compound 10 µM,> 10000 nM
same,"viability, T/C","second compound 0.0316 µM, first compound 0.0316 µM",98.5%
same,"viability, T/C","second compound 0.0316 µM, first compound 0.1 µM",107%
same,"viability, T/C","second compound 0.0316 µM, first compound 0.316 µM",109%
same,"viability, T/C","second compound 0.0316 µM, first compound 1 µM",106%
same,"viability, T/C","second compound 0.0316 µM, first compound 3.16 µM",104%
same,"viability, T/C","second compound 0.0316 µM, first compound 10 µM",101%
same,"viability, T/C","second compound 0.1 µM, first compound 0.0316 µM",91%
same,"viability, T/C","second compound 0.1 µM, first compound 0.1 µM",98.9%
same,"viability, T/C","second compound 0.1 µM, first compound 0.316 µM",96%
same,"viability, T/C","second compound 0.1 µM, first compound 1 µM",97.9%
same,"viability, T/C","second compound 0.1 µM, first compound 3.16 µM",108%
same,"viability, T/C","second compound 0.1 µM, first compound 10 µM",114%
same,"viability, T/C","second compound 0.316 µM, first compound 0.0316 µM",97.2%
same,"viability, T/C","second compound 0.316 µM, first compound 0.1 µM",97%
same,"viability, T/C","second compound 0.316 µM, first compound 0.316 µM",105%
same,"viability, T/C","second compound 0.316 µM, first compound 1 µM",97.1%
same,"viability, T/C","second compound 0.316 µM, first compound 3.16 µM",110%
same,"viability, T/C","second compound 0.316 µM, first compound 10 µM",112%
same,"viability, T/C","second compound 1 µM, first compound 0.0316 µM",113%
same,"viability, T/C","second compound 1 µM, first compound 0.1 µM",109%
same,"viability, T/C","second compound 1 µM, first compound 0.316 µM",111%
same,"viability, T/C","second compound 1 µM, first compound 1 µM",105%
same,"viability, T/C","second compound 1 µM, first compound 3.16 µM",111%
same,"viability, T/C","second compound 1 µM, first compound 10 µM",114%
same,"viability, T/C","second compound 3.16 µM, first compound 0.0316 µM",95.6%
same,"viability, T/C","second compound 3.16 µM, first compound 0.1 µM",94.3%
same,"viability, T/C","second compound 3.16 µM, first compound 0.316 µM",111%
same,"viability, T/C","second compound 3.16 µM, first compound 1 µM",104%
same,"viability, T/C","second compound 3.16 µM, first compound 3.16 µM",103%
same,"viability, T/C","second compound 3.16 µM, first compound 10 µM",106%
same,"viability, T/C","second compound 10 µM, first compound 0.0316 µM",104%
same,"viability, T/C","second compound 10 µM, first compound 0.1 µM",117%
same,"viability, T/C","second compound 10 µM, first compound 0.316 µM",117%
same,"viability, T/C","second compound 10 µM, first compound 1 µM",116%
same,"viability, T/C","second compound 10 µM, first compound 3.16 µM",110%
same,"viability, T/C","second compound 10 µM, first compound 10 µM",116%
Cn1cnc2c(F)c(Nc3ccc(Br)cc3Cl)c(C(=O)NOCCO)cc21 + CC(Nc1ncnc2nc[nH]c12)c1cc2cccc(Cl)c2c(=O)n1-c1ccccc1,IC50,second compound 0.0316 µM,1520 nM
same,IC50,second compound 0.1 µM,1560 nM
same,IC50,second compound 0.316 µM,1910 nM
same,IC50,second compound 1 µM,1730 nM
same,IC50,second compound 3.16 µM,1270 nM
same,IC50,second compound 10 µM,507 nM
same,"viability, T/C","second compound 0.0316 µM, first compound 0.00949 µM",94.3%
same,"viability, T/C","second compound 0.0316 µM, first compound 0.03 µM",100%
same,"viability, T/C","second compound 0.0316 µM, first compound 0.0949 µM",89.7%
same,"viability, T/C","second compound 0.0316 µM, first compound 0.3 µM",75.8%
same,"viability, T/C","second compound 0.0316 µM, first compound 0.949 µM",59.9%
same,"viability, T/C","second compound 0.0316 µM, first compound 3 µM",37.5%
same,"viability, T/C","second compound 0.1 µM, first compound 0.00949 µM",108%
same,"viability, T/C","second compound 0.1 µM, first compound 0.03 µM",96.5%
same,"viability, T/C","second compound 0.1 µM, first compound 0.0949 µM",89%
same,"viability, T/C","second compound 0.1 µM, first compound 0.3 µM",77.6%
same,"viability, T/C","second compound 0.1 µM, first compound 0.949 µM",51.8%
same,"viability, T/C","second compound 0.1 µM, first compound 3 µM",43.8%
same,"viability, T/C","second compound 0.316 µM, first compound 0.00949 µM",95.2%
same,"viability, T/C","second compound 0.316 µM, first compound 0.03 µM",90.5%
same,"viability, T/C","second compound 0.316 µM, first compound 0.0949 µM",86.5%
same,"viability, T/C","second compound 0.316 µM, first compound 0.3 µM",70.2%
same,"viability, T/C","second compound 0.316 µM, first compound 0.949 µM",59.6%
same,"viability, T/C","second compound 0.316 µM, first compound 3 µM",44.4%
same,"viability, T/C","second compound 1 µM, first compound 0.00949 µM",98.6%
same,"viability, T/C","second compound 1 µM, first compound 0.03 µM",90.8%
same,"viability, T/C","second compound 1 µM, first compound 0.0949 µM",87.6%
same,"viability, T/C","second compound 1 µM, first compound 0.3 µM",84.6%
same,"viability, T/C","second compound 1 µM, first compound 0.949 µM",63%
same,"viability, T/C","second compound 1 µM, first compound 3 µM",36.9%
same,"viability, T/C","second compound 3.16 µM, first compound 0.00949 µM",102%
same,"viability, T/C","second compound 3.16 µM, first compound 0.03 µM",96.3%
same,"viability, T/C","second compound 3.16 µM, first compound 0.0949 µM",83.3%
same,"viability, T/C","second compound 3.16 µM, first compound 0.3 µM",76.5%
same,"viability, T/C","second compound 3.16 µM, first compound 0.949 µM",55%
same,"viability, T/C","second compound 3.16 µM, first compound 3 µM",32.5%
same,"viability, T/C","second compound 10 µM, first compound 0.00949 µM",117%
same,"viability, T/C","second compound 10 µM, first compound 0.03 µM",99.1%
same,"viability, T/C","second compound 10 µM, first compound 0.0949 µM",93.3%
same,"viability, T/C","second compound 10 µM, first compound 0.3 µM",52.5%
same,"viability, T/C","second compound 10 µM, first compound 0.949 µM",41%
same,"viability, T/C","second compound 10 µM, first compound 3 µM",6.44%
